Several values for one entry are separate records, joined by “and”; a condition that tells them apart may be missing. Identical values can stand only once. Like-named read-outs stand apart in the source and are kept apart here.
Biological target: T1, human α7 nAChR subtype (Homo sapiens, UniProt P36544)
T1 construct: expressed in transfected cells; host or cells: Xenopus laevis oocytes injected with mRNA
Experiment: Two-electrode voltage clamp electrophysiology on Xenopus laevis oocytes expressing the α7 nAChR
Type: cell-based
Conditions: for IC50: antagonistic activity, TEVC, value (95% CI), 100 µM ACh, 45 s preincubation, Figures 5 and 7
Excerpt: The emerging cyclic imines toxins (CiTXs) of global distribution across coastal environments that are produced by dinoflagellates move fast up the human food chain through shellfish. The CiTX family includes 44 compounds: 7 gymnodimines (A-E, 12-methylgymnodimine and 16-desmethyl gymnodimine D), 16 spirolides (A-D, G-I, 13-desmethyl spirolide-C, 27-Hydroxy-13-desmethyl spirolide-C, 13,19-didesmethyl spirolide-C, 20-hydroxy-13,19-didesmethyl spirolide- C, 27-hydroxy-13,19-spirolide-C, 27-Oxo-13,19-didesmethyl spirolide-C, 13-desmethyl spirolide-D, 20-hydroxy-13,19-didesmethyl spirolide-D and 20-methyl spirolide-G), 8 pinnatoxins (A-H), 3 pteriatoxins (A-C), 6 prorocentrolides (A-B, 4- hydroxyprorocentrolide, 9,51-dihydro prorocentrolide, 30-sulfate prorocentrolide and 14-O-acetyl-4-hydroxyprorocentrolide), 1 spiroprorocentrimine, 2 portimines (A and B), and 1 kabirimine, (Aráoz et al. (2020) Cyclic imine toxins survey in coastal european shellfish samples: Bioaccumulation and mode of action of 28-O-palmitoyl ester of pinnatoxin-G. First report of portimine-A bioaccumulation. Harmful Algae, 98 [1]). The spiroimine moiety is the major feature characterizing cyclic imine toxins. The exception to this rule is prorocentrolides in which a hexahydroisoquinoline group replaces the spiroimine motif, (Torigoe et al. (1988) Prorocentrolide, a toxic nitrogenous macrocycle from a marine dinoflagellate, Prorocentrum-lima. Journal of the American Chemical Society, 110:7876-7877 [2]). Portimines display a 5-membered cyclic imine ring; gymnodimines, prorocentrolides, spiroprorocentrimines and kabirimine present a 6-membered imine ring, while spirolides, pinnatoxins and pteriatoxins display a 7-membered imine ring. Cyclic imine toxins are fast acting neurotoxins that, when administered intraperitoneally or by gavage at lethal doses, kill mice by respiratory arrest within minutes following blockade of neuromuscular nicotinic acetylcholine receptors (nAChR). The mode of action of several cyclic imines on nAChRs has been characterized, namely: gymnodimine-A, 13- desmethyl spirolide- C, 13,19-didesmethyl spirolide-C, 20-methyl spirolide-G, pinnatoxin-A, pinnatoxin-G, prorocentrolide-A and portimine, (Lamoise et al. (2017) Physico-chemical and functional characterization of portimine purified from Vulcanodinium rugosum strain IFR-VRU-01. In "Marine and Fresh-Water Harmful Algae". Proceedings of the 17th International Conference on Harmful Algae (Proença, L.A.O. and Hallegraeff, G. eds) pp. 126-129 ISSHA and IOC/UNESCO, Florianapolis; Molgó et al. (2017) Cyclic imine toxins from dinoflagellates: a growing family of potent antagonists of the nicotinic acetylcholine receptors. Journal of Neurochemistry, 142:41-51 [4]). They are potent antagonists of muscular and neuronal nicotinic acetylcholine receptors with pinnatoxin-A displaying picomolar affinities towards the α7 nicotinic acetylcholine receptor subtype (Aráoz et al. (2011) Total synthesis of pinnatoxins A and G and revision of the mode of action of pinnatoxin A. Journal of the American Chemical Society 133(27):10499-10511 [5]). In contrast, prorocentrolide and portimine show micromolar affinities towards the α7 nicotinic acetylcholine receptor subtype (Lamoise et al. (2017), Stivala et al. (2015) Synthesis and biology of cyclic imine toxins, an emerging class of potent, globally distributed marine toxins. Natural Product Reports, 32(3):411-435 [6]) (Table1). Table 1. Antagonistic activity of CiTX (Two-Electrodes Voltage Clamp electrophysiology).
• Figure 1 represents the chemical structure of ingrilimine according to compound (Illa) formula. • Figure 2 represents the cytotoxic activity of ingrilimine. A2780 ovarian and HT29 colorectal carcinoma cells were grown in RPMI 1640 supplemented with 10% fetal calf serum (FCS) and 1% glutamine. […]

T1 sequence (P36544 23-502): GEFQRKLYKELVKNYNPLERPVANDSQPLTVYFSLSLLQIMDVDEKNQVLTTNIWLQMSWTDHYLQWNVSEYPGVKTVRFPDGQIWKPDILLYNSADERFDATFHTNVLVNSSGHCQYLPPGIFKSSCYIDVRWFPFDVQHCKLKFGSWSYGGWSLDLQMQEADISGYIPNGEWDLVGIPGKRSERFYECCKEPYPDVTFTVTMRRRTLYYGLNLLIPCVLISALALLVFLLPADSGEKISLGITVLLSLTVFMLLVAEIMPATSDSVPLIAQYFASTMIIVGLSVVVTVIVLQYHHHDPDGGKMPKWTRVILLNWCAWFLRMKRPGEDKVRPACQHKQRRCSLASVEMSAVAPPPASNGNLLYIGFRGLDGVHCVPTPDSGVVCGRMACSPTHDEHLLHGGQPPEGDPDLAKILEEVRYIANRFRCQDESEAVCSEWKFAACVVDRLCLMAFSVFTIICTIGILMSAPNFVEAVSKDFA

SMILES | IC50 (read-out: nAChR subtype (nM; 95% CI) α7 (human)) [nM] | peak amplitude relative to the peak amplitude evoked by 100 µM ACh (agonist activity, 10 µM ingrilimine) [%] | behaviour at micromolar concentrations (micromolar concentrations, antagonist at nanomolar concentrations) | IC50 (nAChR subtype (nM; 95% CI) α7 (human)) | times more potent than portimine against the human α7 nAChR subtype (ratio of IC50 values)
C=CC1=C[C@@H]2[C@@H]3O[C@]4(CC[C@H](O4)[C@@H](C)C[C@@H](O)C3=O)C[C@H](O)C3=NCC[C@@]32CC1 [Portimine-A] | 21200 | – | – | – | –
C=CC1=C[C@@H]2C[C@@H](O)[C@@H](O)/C(C)=C/C/C(C)=C/CCC3=NCCC[C@]32CC1 [Ingrilimine, ingrilimine] | – | -25 | behaves as an agonist | 2.3 nM and 2.29 nM | ~ 10 000 times

Source: patent publication EP4624457A1, “I[…] DERIVATIVES, I[…] NEURODEGENERATIVE DISEASES” (Centre National de la Recherche Scientifique, priority 2024, dated 2025)
